Experimental data taken from paper PMC4277828 (BMC Pharmacology & Toxicology, 2014).
“And” between values parts separate entries of the source, which are not always exact repeats. Identical values can stand only once. “Also recorded” adds a separate entry of the source. Like-named read-outs stand apart in the source and are kept apart here. Marks after values point to notes of the source that are not given here.

Columns and labels:
[1] = in vivo, 300 mg
[2] = human, in vivo
[3] = Tolerability and safety of rifabutin and LPV/r: clinical and laboratory adverse events (DAIDS grading)
[4] = design: method as in PMID 15844071; conditions: cited from earlier work
[5] = Steady-state plasma pharmacokinetics of rifabutin and 25-O-desacetylrifabutin with and without LPV/r-based ART (three-period crossover, LC/MS/MS, non-compartmental analysis); conditions: for AUC(0-t): human, plasma, oral, median (interquartile range), n = 14
clinical = conditions: human, plasma, oral, 300 mg
[6] = Steady-state plasma pharmacokinetics of lopinavir given with two rifabutin doses (LCMS/MS, non-compartmental analysis); conditions: for AUC(0-t): human, plasma, oral, Median (Interquartile range), 14 patients
[7] = RBT dose at time of AE 150 mg daily (with LPV/r ART), listed as RBT
[8] = RBT dose at time of AE 150 mg tiw (with LPV/r ART), listed as RBT
[9] = sixteen patients, all rifabutin doses

25-O-desacetylrifabutin [d-RBT]
AUC0–48 [1]: 546.6 (471.4-688.2)^* ng.h/mL
Association between plasma concentration and adverse events such as neutropenia or elevated transaminases [2]: unable to show a significant association

CO[C@H]1/C=C/O[C@@]2(C)Oc3c(C)c(O)c4c(c3C2=O)C2=NC3(CCN(CC(C)C)CC3)NC2=C(NC(=O)/C(C)=C\C=C\[C@H](C)[C@H](O)[C@@H](C)[C@@H](O)[C@@H](C)[C@H](OC(C)=O)[C@@H]1C)C4=O [Rifabutin, rifabutin]
AE (grade 3 laboratory adverse event, individual subject) [3, 7]: Neutropenia; also recorded: AST increased; also recorded: Amylase increased
Days on RBT at grade 3 laboratory AE (individual subject) [3, 7]: 53 days and 77 days and 106 days and 113 days and 57 days
AE (grade 3 laboratory adverse event, individual subject) [3, 8]: AST increased; also recorded: Amylase increased; also recorded: Neutropenia
Days on RBT at grade 3 laboratory AE (individual subject) [3, 8]: 96 days and 119 days and 112 days
AE (grade 3 laboratory adverse event, individual subject) ([3]; RBT dose at time of AE 300 mg daily): Neutropenia
Days on RBT at grade 3 laboratory AE (individual subject) ([3]; RBT dose at time of AE 300 mg daily, listed as RBT): 29 days and 27 days and 28 days
Grade 4 laboratory toxicities / events ([3]; all doses, sixteen patients): no grade 4 laboratory toxicities
Tolerability ([3]; all doses, sixteen patients): well tolerated
Grade 4 laboratory toxicities / events ([3]; all doses, sixteen patients, listed as rifabutin): no grade 4 laboratory events
Association between plasma concentration and adverse events such as neutropenia or elevated transaminases ([3]; human, in vivo): unable to show a significant association
Uveitis ([3]; patient taking rifabutin 300 mg daily, after 1 month of rifabutin, prior to / coinciding with start of ART): One case of uveitis (grade 4); also recorded: Grade 2 uveitis occurred in one patient
Serious adverse events ([3]; sixteen patients): two serious adverse events (bacterial meningitis and pyelonephritis), both considered unrelated to rifabutin
Grade 3 elevations in transaminases and amylase, number [3, 9]: 2
Grade 3 neutropenia, number of occasions [3, 9]: 7 occasions
Grade 3 neutropenia, number of patients [3, 9]: 4 patients and 5 patients
Patients who relapsed or failed therapy that developed ARR ([4]; TB-HIV co-infected patients with AUC0–24 < 4.5 μg.h/mL): 83%
Patients who relapsed or failed therapy that developed ARR ([4]; TB-HIV co-infected patients with AUC above the threshold of 4.5 μg.h/mL): 33%
GMR (90% CI) of Cmin24h ([5]; RBT 150 mg daily (with LPV/r ART) with RBT 300 mg daily): 2.7 (2.2 – 3.2)
GMR (90% CI) of Cmin24h ([5]; RBT 150 mg tiw (with LPV/r ART) with RBT 300 mg daily): 1.2 (1.0 – 1.4)
GMR (90% CI) of Cmin24h ([5]; RBT 150 mg tiw with RBT 150 mg daily (both with LPV/r ART)): 0.5 (0.4 – 0.5)
Increase in AUC0–24 ([5]; daily dose of 150 mg compared to the three times a week dose, both with LPV/r): more than two fold increase
AUC(0-t) ([5]; 150 mg, AUC0–24, Rifabutin 150 mg daily plus LPV/r, steady state): 4770 ng·h/mL
AUC(0-t) ([5]; 150 mg, AUC0–24, Rifabutin 150 mg tiw plus LPV/r, steady state): 2310 ng·h/mL
AUC(0-t) ([5]; 150 mg, AUC0–48, Rifabutin 150 mg daily plus LPV/r, calculated by 2X AUC0–24): 9530 ng·h/mL
AUC(0-t) ([5]; 300 mg, AUC0–24, Rifabutin 300 mg daily without LPV/r, steady state): 3050 ng·h/mL
AUC(0-t) ([5]; 300 mg, AUC0–48, Rifabutin 300 mg daily without LPV/r, calculated by 2X AUC0–24): 6110 ng·h/mL
Patients with AUC0–24 values >4.5 μg.h/mL ([5]; rifabutin 150 mg daily with LPV/r): 71%
Patients with AUC0–24 values >4.5 μg.h/mL ([5]; rifabutin tiw dosing with LPV/r): 14%
Patients with AUC0-24 < 4.5 μg.h/mL ([5]; tiw rifabutin arm (150 mg tiw with LPV/r)): 86%
Cmax (clinical): 292 ng/mL

Cc1cccc(C)c1OCC(=O)N[C@@H](Cc1ccccc1)[C@@H](O)C[C@H](Cc1ccccc1)NC(=O)[C@H](C(C)C)N1CCCNC1=O [lopinavir]
Median lopinavir trough (C0) concentrations versus recommended lower limit for ART-naïve patients ([6]; both rifabutin doses): > 1 µg
AUC(0-t) ([6]; AUC0–12, RBT 150 mg daily plus LPV/r (400/100 mg)): 160000 ng·h/mL
AUC(0-t) ([6]; AUC0–12, RBT 150 mg tiw plus LPV/r (400/100 mg)): 140000 ng·h/mL
Differences in AUC0–12 and Cmax between the two doses of rifabutin ([6]; rifabutin 150 mg daily versus 150 mg tiw): not significant
